Reference: patent publication US9718823B2, “2, 6-Di-nitrogen-containing substituted purine derivative, and preparation method, pharmaceutical composition and use thereof” (Zhejiang Medicine Co., Ltd. Xinchang Pharmaceutical Factory, priority 2013, dated 2017)
Where a name gives a salt, the structure may show the parent alone. Read-outs that look alike come from different tables or passages of the source.

What was measured:
[1] = test system: U87MG human glioblastoma Multiforme cell strain; assay: Antitumor cell proliferation in vitro, CCK-8 detection kit, U87MG; format: cell-based; details: U-87 MG, 72 h, U-87MG cells, 1st and 2nd test where printed
Description: (§1) The half inhibitory concentration IC50 of proliferation of three kinds of tumor cell strain (U87MG, PC-3, BT474) for 12 candidate compounds of the present invention is detected by CCK-8 detection kits.
U87MG human glioblastoma Multiforme cell strain (cell bank of Chinese Academy of Sciences)
(§2) The studied compounds are dissolved by DMSO to make the final concentration 10 mM.
(§3) • a) Collecting the cells in logarithmic phase, counting, and resuspending the cells with complete medium. • b) Adjusting the concentration of cells to a suitable concentration, inoculating in 96 well plates, each well is inoculated to 100 μl cell suspension.
(§4) c) incubating cells for 24 hours in a 5% CO2 incubator at temperature of 37° C., under the condition of 100% relative humidity.
(§5) a) The cells in logarithmic phase is collected, counted, resuspended with complete medium. The concentration of cells is adjusted to a suitable concentration (determined in accordance with the optimizable test results of cell density), and the cells is inoculated in 96 well plates, wherein each well is inoculated 100 μl cell suspension, Cells are incubated for 24 hours in 5% CO2 incubator at temperature of 37° C. under the condition of 100% relative humidity.
(§6) b) The test compounds are diluted to 500 μM with culture medium, then diluted in series eight times. […] as 25 μl/well. The final concentrations of the compounds are diluted from 100 μM to 0 μM, with 4 times dilution, and there are a total of 10 concentration points.
(§7) c) Cells are incubated for 72 hours in 5% CO2 incubator at temperature of 37° C. under the condition of 100% relative humidity.
(§8) d) The culture medium is aspirated and discarded, and complete medium containing 10% CCK-8 is incubated in a incubator at 37° C. for 2˜4 hours.
(§9) e) After shocking gently, the absorbance of the culture medium is measured at 450 nm wavelength on SpectraMax M5 Microplate Reader, with the absorbance at 650 nm as reference, to calculate the inhibition rate.

PI3Kδ = target: T1, PI3Kδ (Homo sapiens, UniProt O00329); assay: Inhibitory activity to PI3K δ, PI 3-Kinase (human) HTRF Assay kit; format: biochemical
T1 construct: purchased Millipore 14-604
How it was run: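 Inhibition of human PI3Kδ was assessed with the Millipore PI 3-Kinase (human) HTRF Assay kit. PI3Kδ was screened at 2 ng/well, diluted in 2×PIP2 operating fluid. Reactions were 20 μL and contained 100 μM ATP. Stop solution was Stop A and Stop B mixed 3:1. Detection solution was DM C, DM A and DM B mixed 18:1:1. Compounds were prepared from DMSO stocks, and percent inhibition was reported.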

PDGFR β enzyme = target: T2, PDGFR β enzyme (Homo sapiens, UniProt P09619); assay: Inhibitory activity to PDGFR β enzyme, HTRF kinEASE TK kit; format: biochemical
T2 construct: purchased Invitrogen P3082
How it was run: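 Recombinant human PDGFRβ phosphorylating TK-substrate in kinase buffer containing MgCl2, MnCl2, DTT and SEB, with ATP. Phosphorylation detected by HTRF using TK-Ab-Cryptate and Sa-XL665.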

[2] = test system: BT474 human breast cancer cell strain; assay: Antitumor cell proliferation in vitro, CCK-8 detection kit, BT474; format: cell-based; details: Homo sapiens, BT-474, 72 h, BT-474 cells, 1st and 2nd test where printed
Description: as §1
BT474 human breast cancer cell strain (cell bank of Chinese Academy of Sciences) Reagents and materials:
as §2, §3, §4, §5, §6, §7, §8, §9

PI3K α = target: T3, PI3K α (Homo sapiens, UniProt P42336); assay: Inhibitory activity to PI3K α, PI 3-Kinase (human) HTRF Assay kit; format: biochemical; details: read-out: % Inhibition Rate to PI3K α
T3 construct: purchased Millipore 14-602
How it was run: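 HTRF assay using human PI3Kα at 8 ng/well, 100 μM ATP and PIP2 (2× working stock 20 μM) in 20 μL reaction containing 1% DMSO. Screened at 10 μM and 1 μM for percent inhibition, with selected compounds then taken to IC50 determination.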

[3] = 10 μM (Table 7), read-out: Inhibition rate % to PI3Kδ

T3 sequence (P42336 whole entry): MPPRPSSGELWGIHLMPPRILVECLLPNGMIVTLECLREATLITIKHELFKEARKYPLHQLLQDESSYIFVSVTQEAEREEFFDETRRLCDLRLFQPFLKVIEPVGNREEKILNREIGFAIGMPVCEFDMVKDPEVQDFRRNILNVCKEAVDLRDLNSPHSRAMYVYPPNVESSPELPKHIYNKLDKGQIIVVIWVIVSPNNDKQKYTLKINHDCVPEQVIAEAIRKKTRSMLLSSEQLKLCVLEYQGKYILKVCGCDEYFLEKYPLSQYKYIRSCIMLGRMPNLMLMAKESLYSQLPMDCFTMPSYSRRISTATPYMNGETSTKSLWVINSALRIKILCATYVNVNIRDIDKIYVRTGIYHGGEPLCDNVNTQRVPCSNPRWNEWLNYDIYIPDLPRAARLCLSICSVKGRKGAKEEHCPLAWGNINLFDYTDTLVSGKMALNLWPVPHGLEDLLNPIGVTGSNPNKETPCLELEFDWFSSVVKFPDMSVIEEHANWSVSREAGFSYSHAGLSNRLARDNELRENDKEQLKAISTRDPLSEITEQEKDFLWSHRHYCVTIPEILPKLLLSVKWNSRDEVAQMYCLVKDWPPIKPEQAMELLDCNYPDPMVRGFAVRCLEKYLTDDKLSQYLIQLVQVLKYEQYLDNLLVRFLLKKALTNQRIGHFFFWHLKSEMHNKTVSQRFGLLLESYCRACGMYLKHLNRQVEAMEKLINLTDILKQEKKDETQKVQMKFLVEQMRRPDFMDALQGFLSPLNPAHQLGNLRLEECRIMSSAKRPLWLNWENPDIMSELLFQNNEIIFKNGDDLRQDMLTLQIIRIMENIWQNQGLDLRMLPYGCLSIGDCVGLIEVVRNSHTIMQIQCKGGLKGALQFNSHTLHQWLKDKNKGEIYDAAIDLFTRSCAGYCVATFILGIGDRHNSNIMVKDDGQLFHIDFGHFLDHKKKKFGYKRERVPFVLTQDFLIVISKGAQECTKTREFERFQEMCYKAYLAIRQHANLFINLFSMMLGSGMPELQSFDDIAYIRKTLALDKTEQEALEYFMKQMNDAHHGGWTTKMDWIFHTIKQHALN
T3 sequence (P27986 whole entry partner): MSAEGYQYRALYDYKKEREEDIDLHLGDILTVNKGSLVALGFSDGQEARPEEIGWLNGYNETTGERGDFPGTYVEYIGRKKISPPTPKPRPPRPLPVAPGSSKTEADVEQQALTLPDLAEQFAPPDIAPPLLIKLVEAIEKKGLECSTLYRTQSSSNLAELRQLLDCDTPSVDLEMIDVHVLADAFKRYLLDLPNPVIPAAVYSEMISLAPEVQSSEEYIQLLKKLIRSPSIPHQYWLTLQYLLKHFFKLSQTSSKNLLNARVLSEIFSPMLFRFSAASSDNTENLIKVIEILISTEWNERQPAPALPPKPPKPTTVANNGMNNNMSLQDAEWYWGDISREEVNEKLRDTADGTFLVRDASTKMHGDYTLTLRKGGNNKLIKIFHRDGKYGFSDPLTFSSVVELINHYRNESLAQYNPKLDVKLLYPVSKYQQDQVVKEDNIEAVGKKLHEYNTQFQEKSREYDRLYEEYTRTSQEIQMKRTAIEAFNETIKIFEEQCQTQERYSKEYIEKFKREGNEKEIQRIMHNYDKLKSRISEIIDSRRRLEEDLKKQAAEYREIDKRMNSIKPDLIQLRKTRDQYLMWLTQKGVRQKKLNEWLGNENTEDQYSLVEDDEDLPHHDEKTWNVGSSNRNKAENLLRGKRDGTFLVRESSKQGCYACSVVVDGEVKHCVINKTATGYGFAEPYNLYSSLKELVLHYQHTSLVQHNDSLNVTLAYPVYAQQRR
T1 sequence (O00329 whole entry): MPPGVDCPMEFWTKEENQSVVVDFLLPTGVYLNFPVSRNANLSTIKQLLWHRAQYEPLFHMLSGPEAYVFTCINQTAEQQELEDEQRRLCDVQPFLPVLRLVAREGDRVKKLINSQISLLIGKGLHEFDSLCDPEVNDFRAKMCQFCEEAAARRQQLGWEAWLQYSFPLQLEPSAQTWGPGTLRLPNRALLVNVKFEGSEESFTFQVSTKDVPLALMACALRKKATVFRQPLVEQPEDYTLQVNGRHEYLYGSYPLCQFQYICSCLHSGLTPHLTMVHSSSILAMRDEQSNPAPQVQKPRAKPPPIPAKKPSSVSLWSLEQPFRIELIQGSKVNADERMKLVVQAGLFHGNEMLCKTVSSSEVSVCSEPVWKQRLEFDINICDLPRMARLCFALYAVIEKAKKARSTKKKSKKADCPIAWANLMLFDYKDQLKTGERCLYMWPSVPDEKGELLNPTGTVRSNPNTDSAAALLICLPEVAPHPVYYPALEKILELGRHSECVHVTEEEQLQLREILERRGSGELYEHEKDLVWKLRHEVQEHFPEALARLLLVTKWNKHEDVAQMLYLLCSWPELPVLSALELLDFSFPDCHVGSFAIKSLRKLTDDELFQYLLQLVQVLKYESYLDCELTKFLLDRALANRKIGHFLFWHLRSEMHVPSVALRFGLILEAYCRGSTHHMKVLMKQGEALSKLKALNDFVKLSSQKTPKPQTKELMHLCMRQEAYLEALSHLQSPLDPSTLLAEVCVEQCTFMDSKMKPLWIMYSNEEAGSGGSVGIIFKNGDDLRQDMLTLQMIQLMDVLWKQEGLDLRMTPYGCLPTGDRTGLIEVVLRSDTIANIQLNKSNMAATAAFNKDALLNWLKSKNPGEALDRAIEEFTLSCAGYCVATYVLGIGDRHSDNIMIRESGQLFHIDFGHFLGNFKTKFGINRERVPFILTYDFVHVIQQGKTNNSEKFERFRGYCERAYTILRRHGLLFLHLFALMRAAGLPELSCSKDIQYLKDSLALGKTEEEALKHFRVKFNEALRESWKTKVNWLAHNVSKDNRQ
T1 sequence (P27986 whole entry partner): as the sequence (P27986 whole entry partner) above
T2 sequence (P09619 33-1106): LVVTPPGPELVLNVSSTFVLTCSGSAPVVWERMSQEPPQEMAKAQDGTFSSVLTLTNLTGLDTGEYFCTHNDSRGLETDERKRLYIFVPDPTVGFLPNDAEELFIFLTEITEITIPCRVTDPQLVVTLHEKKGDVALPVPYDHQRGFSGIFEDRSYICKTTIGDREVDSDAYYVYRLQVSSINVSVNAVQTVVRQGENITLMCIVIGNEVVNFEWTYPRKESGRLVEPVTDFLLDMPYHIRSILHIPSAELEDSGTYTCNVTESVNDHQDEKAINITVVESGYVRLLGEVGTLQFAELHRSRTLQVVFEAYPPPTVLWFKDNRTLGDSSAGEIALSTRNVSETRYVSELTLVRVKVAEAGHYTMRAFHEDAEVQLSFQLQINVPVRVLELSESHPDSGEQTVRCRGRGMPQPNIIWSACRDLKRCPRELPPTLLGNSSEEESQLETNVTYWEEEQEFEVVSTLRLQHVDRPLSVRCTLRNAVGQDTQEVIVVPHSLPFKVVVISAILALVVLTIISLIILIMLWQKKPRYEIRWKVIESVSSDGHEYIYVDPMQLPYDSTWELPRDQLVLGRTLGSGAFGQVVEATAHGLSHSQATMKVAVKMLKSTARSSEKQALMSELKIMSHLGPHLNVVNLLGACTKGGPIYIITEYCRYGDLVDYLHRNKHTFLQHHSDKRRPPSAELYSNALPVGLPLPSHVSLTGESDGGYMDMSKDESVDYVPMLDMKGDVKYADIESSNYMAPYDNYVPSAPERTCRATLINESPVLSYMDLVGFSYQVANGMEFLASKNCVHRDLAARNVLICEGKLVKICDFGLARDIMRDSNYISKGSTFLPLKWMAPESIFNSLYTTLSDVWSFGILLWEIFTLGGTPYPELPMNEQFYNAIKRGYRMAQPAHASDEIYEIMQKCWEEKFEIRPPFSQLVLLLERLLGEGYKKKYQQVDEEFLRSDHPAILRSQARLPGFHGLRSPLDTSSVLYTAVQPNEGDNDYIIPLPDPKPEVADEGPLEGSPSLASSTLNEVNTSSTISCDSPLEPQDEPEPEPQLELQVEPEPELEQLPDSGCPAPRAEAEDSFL

Row | IC50 [1] | Inhibition rate % to PI3Kδ (PI3Kδ; 1 μM (Table 7), dihydrate di-methanesulfonate, 1 µM) | Inhibition rate % (PDGFR β) (PDGFR β enzyme; 1 μM, dihydrate di-methanesulfonate) | inhibition at 10 µM (PDGFR β enzyme; 10 μM, read-out: Inhibition rate % (PDGFR β)) | SMILES | inhibition at 10 µM (PI3Kδ; [3]) | IC50 [2] | inhibition at 1 µM (PI3K α) | inhibition at 10 µM (PI3K α) | inhibition at 0.4 µM (PI3Kδ; 0.4 μM (Table 8), read-out: Inhibition rate % to PI3K delta) | inhibition at 1 µM (PI3Kδ; 1 μM (Table 7), read-out: Inhibition rate % to PI3Kδ) | inhibition at 10 µM (PI3Kδ; 10 μM (Table 8), read-out: Inhibition rate % to PI3K delta) | inhibition at 2 µM (PI3Kδ; read-out: Inhibition rate % to PI3K delta)
1 | 8.15 µM | 96.32% | −10.96% | 13.8% | c1ccc(-c2ccnc3ccc(Nc4nc(NC5CC5)c5nc[nH]c5n4)cc23)cc1 [MED1007-91, N6-cyclopropyl-N2-(4-phenylquinoline-6-yl)-9H-purine-2,6-diammonium salt dihydrate di-methanesulfonate] | 115% | 0.523 µM | 97% | 124% | – | – | – | –
2 | – | – | – | – | COC[C@H]1OC(=O)c2coc3c2[C@@]1(C)C1=C(C3=O)[C@@H]2CCC(=O)[C@@]2(C)C[C@H]1OC(C)=O [Wortmannin, reference compound] | 108% | 5.21 µM | 109% | 105% | 93.4% | 95.4% | 105% | 109%
